Reference: US12442042B2, “Epigenomic profiling reveals the somatic promoter landscape of primary gastric adenocarcinoma” (AGENCY FOR SCIENCE, TECHNOLOGY AND RESEARCH, priority 2016, dated 2025)

How the values were obtained:
IM95 GC cells = assay: EZH2 inhibition: RNA-seq of GSK126-treated IM95 cells at promoter loci; type: cell-based, human
Method: IM95 were treated with GSK126 (Selleck, USA), a selective EZH2 inhibitor, at a concentration of 5 μM. Cell proliferation was monitored in 96-well plates post-treatment with GSK126 using the CellTiter-Glo® Luminescent Cell Viability Assay (Promega) for three independent experiments. For RNA-seq analysis, total RNA was extracted using the Qiagen RNAeasy mini kit according to manufacturer's instructions. Cells were treated with GSK126 (Selleck, USA; dissolved in DMSO) at a concentration of 5 μM. Control cells were treated with the same concentration of DMSO (0.1%). RNAseq differential analysis for promoter loci was carried out using edgeR on read counts mapping to H3K4me3 regions estimated using featureCounts. RNAseq gene level differential analysis was performed using cuffdiff2.2.1.

PBMCs = assay: EpiMAX assay: cytokine multiplex on supernatants of PBMCs stimulated with peptide pools; type: cell-based, human
Method: A set of peptides for 15 representative alternative promoters was purchased from GenScript (GenScript). Peptide sequences and composition of peptide pools for each alternative promoter are described in Table 3. Control peptide pools for human Actin were purchased from JPT (PM-ACTS, PepMix™ Human (Actin) JPT). Peripheral blood mononuclear cells (PBMCs) were obtained from 9 healthy volunteers of whom 8 PBMC samples were HLA-typed (Table 3).
PBMCs were labelled with 1 μM CFSE (Life Technologies, Thermo Fisher Scientific) and cultured at a density of 200,000 cells per well in complete culture medium (cRPMI comprising RPMI 1640 medium (Gibco, Thermo Fisher Scientific), 15 mM HEPES (Gibco), 1% non-essential amino acid (Gibco), 1 mM sodium pyruvate (Gibco), 1% penicillin/streptomycin (Gibco), 2 mM L-glutamine (Gibco), 50 μM β2-mercaptoethanol (Sigma, Merck), and 10% heat-inactivated FCS (Hyclone)) for 5 days. Individual peptide pools of each alternative promoter were added at the start of the culture at a concentration of 1 μg/ml for each peptide. At the end of day 5, cells were stained with LIVE/DEAD® fixable near-IR dead cell stain kit (Life Technologies), and labelled with CD4-BUV737 (BD), CD8-PacificBlue (BD), CD3-PE (BioLegend), CD19-PE/TexasRed (Beckman), and CD56-APC (BD). Analysis of T cell proliferation by CFSE dilution was performed by flow cytometry using a LSRII (BD). In addition, magnetic bead-based cytokine multiplex analysis (human cytokine panel 1, Millipore, Merck) was performed on cell culture supernatants to measure secreted cytokine levels.

[1] = Donor 1 PBMCs stimulated with peptide pool
[2] = Donor 2 PBMCs stimulated with peptide pool
[3] = Donor 3 PBMCs stimulated with peptide pool
[4] = Donor 4 PBMCs stimulated with peptide pool
[5] = Donor 5 PBMCs stimulated with peptide pool
[6] = Donor 6 PBMCs stimulated with peptide pool
[7] = Donor 7 PBMCs stimulated with peptide pool
[8] = Donor 8 PBMCs stimulated with peptide pool
[9] = Donor 9 PBMCs stimulated with peptide pool

CC[C@H](C)n1cc(C)c2c(C(=O)NCc3c(C)cc(C)[nH]c3=O)cc(-c3ccc(N4CCNCC4)nc3)cc21 [GSK126]
deregulated promoters mapping to somatic promoters lost in primary GC that were reactivated (IM95 GC cells; 78/87, FC>=2, qval<0.1): 89.6%
gene sets of genes upregulated upon EZH2 inhibition (IM95 GC cells; Day 6 and 9, RNA-seq): enriched in previously identified PRC2 target gene sets
OR, somatic promoters vs all GSK126 regulated genes (IM95 GC cells; Fisher Test, P<0.001): 9.21
OR, somatic promoters vs unaltered promoters changing expression (IM95 GC cells; Fisher Test, P<0.001): 1.46
promoters deregulated in total (IM95 GC cells; GSK126 5 μM, Day 6 and 9, RNA-seq): 2134
proportion of somatic promoters deregulated (IM95 GC cells; GSK126 5 μM, RNA-seq): 12.8%
proportion of unaltered promoters exhibiting deregulation (IM95 GC cells; GSK126 5 μM, RNA-seq): 8.8%
somatic promoters deregulated (of 1959 promoters exhibiting somatic alterations in primary GCs) (IM95 GC cells; GSK126 5 μM, RNA-seq): 251
total proportion of genes (as defined by Gencode) regulated (IM95 GC cells; GSK126 5 μM, RNA-seq): 1.5%
expression at PSCA TSS (lost somatic promoter) (IM95 GC cells; day 6 (D6) and Day 9 (D9)): Gain of expression
expression at SLC9A9 TSS (lost somatic promoter) (IM95 GC cells; day 6 (D6) and Day 9 (D9)): Gain of expression
expression at alternative promoter ESRRG (lost promoter activity) (IM95 GC cells; day 6 (D6) and Day 9 (D9)): Gain of expression

Actin
Analyte concentration GM-CSF (PBMCs; [1]): 19.57 pg/mL
Analyte concentration IFNg (PBMCs; [1]): 147.18 pg/mL
Analyte concentration IL-2 (PBMCs; [1]): 34.21 pg/mL
Analyte concentration IL-3 (PBMCs; [1]): 1.46 pg/mL
Analyte concentration IL-4 (PBMCs; [1]): 0.03 pg/mL
Analyte concentration IL-7 (PBMCs; [1]): 0.085 pg/mL
Analyte concentration IL-9 (PBMCs; [1]): 1.22 pg/mL
Analyte concentration IL-10 (PBMCs; [1]): 10.1 pg/mL
Analyte concentration IL-13 (PBMCs; [1]): 14.2 pg/mL
Analyte concentration IL-15 (PBMCs; [1]): 0.925 pg/mL
Analyte concentration IL-17A (PBMCs; [1]): 0.02 pg/mL
Analyte concentration TNFa (PBMCs; [1]): 101.44 pg/mL
Analyte concentration sCD40L (PBMCs; [1]): 0.78 pg/mL
Fold change of total cytokine response (normalized against Actin control) (PBMCs; [1]): 1.00
Total analytes (PBMCs; [1]): 331.40 pg/mL
Analyte concentration GM-CSF (PBMCs; [2]): 15.58 pg/mL
Analyte concentration IFNg (PBMCs; [2]): 7.71 pg/mL
Analyte concentration IL-2 (PBMCs; [2]): 11.28 pg/mL
Analyte concentration IL-3 (PBMCs; [2]): 0.76 pg/mL
Analyte concentration IL-4 (PBMCs; [2]): 0.03 pg/mL
Analyte concentration IL-7 (PBMCs; [2]): 1.73 pg/mL
Analyte concentration IL-9 (PBMCs; [2]): 1.22 pg/mL
Analyte concentration IL-10 (PBMCs; [2]): 5.29 pg/mL
Analyte concentration IL-13 (PBMCs; [2]): 13.75 pg/mL
Analyte concentration IL-15 (PBMCs; [2]): 0.925 pg/mL
Analyte concentration IL-17A (PBMCs; [2]): 0.02 pg/mL
Analyte concentration TNFa (PBMCs; [2]): 9.18 pg/mL
Analyte concentration sCD40L (PBMCs; [2]): 1.81 pg/mL
Fold change of total cytokine response (normalized against Actin control) (PBMCs; [2]): 1.00
Total analytes (PBMCs; [2]): 69.29 pg/mL
Analyte concentration GM-CSF (PBMCs; [3]): 56.66 pg/mL
Analyte concentration IFNg (PBMCs; [3]): 60.86 pg/mL
Analyte concentration IL-2 (PBMCs; [3]): 13.4 pg/mL
Analyte concentration IL-3 (PBMCs; [3]): 0.56 pg/mL
Analyte concentration IL-4 (PBMCs; [3]): 4.53 pg/mL
Analyte concentration IL-7 (PBMCs; [3]): 0.085 pg/mL
Analyte concentration IL-9 (PBMCs; [3]): 1.22 pg/mL
Analyte concentration IL-10 (PBMCs; [3]): 2.56 pg/mL
Analyte concentration IL-13 (PBMCs; [3]): 5.96 pg/mL
Analyte concentration IL-15 (PBMCs; [3]): 0.925 pg/mL
Analyte concentration IL-17A (PBMCs; [3]): 2.89 pg/mL
Analyte concentration TNFa (PBMCs; [3]): 20.69 pg/mL
Analyte concentration sCD40L (PBMCs; [3]): 0.01 pg/mL
Fold change of total cytokine response (normalized against Actin control) (PBMCs; [3]): 1.00
Total analytes (PBMCs; [3]): 170.35 pg/mL
Analyte concentration GM-CSF (PBMCs; [4]): 0.66 pg/mL
Analyte concentration IFNg (PBMCs; [4]): 0.01 pg/mL
Analyte concentration IL-2 (PBMCs; [4]): 1.27 pg/mL
Analyte concentration IL-3 (PBMCs; [4]): 0.005 pg/mL
Analyte concentration IL-4 (PBMCs; [4]): 0.03 pg/mL
Analyte concentration IL-7 (PBMCs; [4]): 0.085 pg/mL
Analyte concentration IL-9 (PBMCs; [4]): 1.22 pg/mL
Analyte concentration IL-10 (PBMCs; [4]): 0.18 pg/mL
Analyte concentration IL-13 (PBMCs; [4]): 0.99 pg/mL
Analyte concentration IL-15 (PBMCs; [4]): 0.925 pg/mL
Analyte concentration IL-17A (PBMCs; [4]): 0.02 pg/mL
Analyte concentration TNFa (PBMCs; [4]): 1.49 pg/mL
Analyte concentration sCD40L (PBMCs; [4]): 0.01 pg/mL
Fold change of total cytokine response (normalized against Actin control) (PBMCs; [4]): 1.00
Total analytes (PBMCs; [4]): 6.90 pg/mL
Analyte concentration GM-CSF (PBMCs; [5]): 0.66 pg/mL
Analyte concentration IFNg (PBMCs; [5]): 1.65 pg/mL
Analyte concentration IL-2 (PBMCs; [5]): 1.4 pg/mL
Analyte concentration IL-3 (PBMCs; [5]): 0.005 pg/mL
Analyte concentration IL-4 (PBMCs; [5]): 0.03 pg/mL
Analyte concentration IL-7 (PBMCs; [5]): 0.085 pg/mL
Analyte concentration IL-9 (PBMCs; [5]): 1.22 pg/mL
Analyte concentration IL-10 (PBMCs; [5]): 5.5 pg/mL
Analyte concentration IL-13 (PBMCs; [5]): 1.44 pg/mL
Analyte concentration IL-15 (PBMCs; [5]): 0.925 pg/mL
Analyte concentration IL-17A (PBMCs; [5]): 0.02 pg/mL
Analyte concentration TNFa (PBMCs; [5]): 3.08 pg/mL
Analyte concentration sCD40L (PBMCs; [5]): 0.01 pg/mL
Fold change of total cytokine response (normalized against Actin control) (PBMCs; [5]): 1.00
Total analytes (PBMCs; [5]): 16.03 pg/mL
Analyte concentration GM-CSF (PBMCs; [6]): 18.18 pg/mL
Analyte concentration IFNg (PBMCs; [6]): 135.48 pg/mL
Analyte concentration IL-2 (PBMCs; [6]): 11.03 pg/mL
Analyte concentration IL-3 (PBMCs; [6]): 0.5 pg/mL
Analyte concentration IL-4 (PBMCs; [6]): 0.03 pg/mL
Analyte concentration IL-7 (PBMCs; [6]): 0.085 pg/mL
Analyte concentration IL-9 (PBMCs; [6]): 1.22 pg/mL
Analyte concentration IL-10 (PBMCs; [6]): 4.66 pg/mL
Analyte concentration IL-13 (PBMCs; [6]): 8.77 pg/mL
Analyte concentration IL-15 (PBMCs; [6]): 0.925 pg/mL
Analyte concentration IL-17A (PBMCs; [6]): 2.22 pg/mL
Analyte concentration TNFa (PBMCs; [6]): 38.39 pg/mL
Analyte concentration sCD40L (PBMCs; [6]): 0.01 pg/mL
Fold change of total cytokine response (normalized against Actin control) (PBMCs; [6]): 1.00
Total analytes (PBMCs; [6]): 222.13 pg/mL
Analyte concentration GM-CSF (PBMCs; [7]): 3.31 pg/mL
Analyte concentration IFNg (PBMCs; [7]): 6.53 pg/mL
Analyte concentration IL-2 (PBMCs; [7]): 0.77 pg/mL
Analyte concentration IL-3 (PBMCs; [7]): 0.01 pg/mL
Analyte concentration IL-4 (PBMCs; [7]): 0.03 pg/mL
Analyte concentration IL-7 (PBMCs; [7]): 2.29 pg/mL
Analyte concentration IL-9 (PBMCs; [7]): 1.22 pg/mL
Analyte concentration IL-10 (PBMCs; [7]): 7.7 pg/mL
Analyte concentration IL-13 (PBMCs; [7]): 0.14 pg/mL
Analyte concentration IL-15 (PBMCs; [7]): 0.925 pg/mL
Analyte concentration IL-17A (PBMCs; [7]): 0.02 pg/mL
Analyte concentration TNFa (PBMCs; [7]): 48.35 pg/mL
Analyte concentration sCD40L (PBMCs; [7]): 0.01 pg/mL
Fold change of total cytokine response (normalized against Actin control) (PBMCs; [7]): 1.00
Total analytes (PBMCs; [7]): 71.31 pg/mL
Analyte concentration GM-CSF (PBMCs; [8]): 0.66 pg/mL
Analyte concentration IFNg (PBMCs; [8]): 1.12 pg/mL
Analyte concentration IL-2 (PBMCs; [8]): 1.9 pg/mL
Analyte concentration IL-3 (PBMCs; [8]): 0.22 pg/mL
Analyte concentration IL-4 (PBMCs; [8]): 0.03 pg/mL
Analyte concentration IL-7 (PBMCs; [8]): 0.085 pg/mL
Analyte concentration IL-9 (PBMCs; [8]): 1.22 pg/mL
Analyte concentration IL-10 (PBMCs; [8]): 3.61 pg/mL
Analyte concentration IL-13 (PBMCs; [8]): 0.03 pg/mL
Analyte concentration IL-15 (PBMCs; [8]): 0.925 pg/mL
Analyte concentration IL-17A (PBMCs; [8]): 0.02 pg/mL
Analyte concentration TNFa (PBMCs; [8]): 2.64 pg/mL
Analyte concentration sCD40L (PBMCs; [8]): 0.58 pg/mL
Fold change of total cytokine response (normalized against Actin control) (PBMCs; [8]): 1.00
Total analytes (PBMCs; [8]): 13.04 pg/mL
Analyte concentration GM-CSF (PBMCs; [9]): 0.66 pg/mL
Analyte concentration IFNg (PBMCs; [9]): 3.49 pg/mL
Analyte concentration IL-2 (PBMCs; [9]): 0.77 pg/mL
Analyte concentration IL-3 (PBMCs; [9]): 0.36 pg/mL
Analyte concentration IL-4 (PBMCs; [9]): 0.03 pg/mL
Analyte concentration IL-7 (PBMCs; [9]): 2.01 pg/mL
Analyte concentration IL-9 (PBMCs; [9]): 1.22 pg/mL
Analyte concentration IL-10 (PBMCs; [9]): 2.13 pg/mL
Analyte concentration IL-13 (PBMCs; [9]): 1.05 pg/mL
Analyte concentration IL-15 (PBMCs; [9]): 0.925 pg/mL
Analyte concentration IL-17A (PBMCs; [9]): 0.58 pg/mL
Analyte concentration TNFa (PBMCs; [9]): 56.18 pg/mL
Analyte concentration sCD40L (PBMCs; [9]): 0.01 pg/mL
Fold change of total cytokine response (normalized against Actin control) (PBMCs; [9]): 1.00
Total analytes (PBMCs; [9]): 69.42 pg/mL
